# Measured values reported in patent publication US6998411B2, “2-Methylheptylisonicotinate and process for production thereof” (Council of Scientific and Industrial Research, priority 2001, dated 2006).
# Like-named read-outs stand apart in the source and are kept apart here.
# Legend:
# Assay type in all cases: cell-based
# Bacillus subtilis [1] = assay: agar cup assay, zone of inhibition; conditions: purified compound, 10 μg of the substance
# Procedure: (§1) 2-Methylheptylisonicotinate of formula 1 was bioassayed following agar cup assay method (Grammer, 1976). […] The antibacterial activity of the bioactive molecule was tested against dominant bacterial strains such as Bacillus subtilis, E. coli, Shigella sp., Klebsiella sp. and Proteus mirabilis. Maximum inhibition was recorded in E. coli (30 mm in diameter) and Proteus mirabilis (28 mm). […] Maximum zone of inhibition was recorded in Fusarium solani and F. semitechtum (26 mm with 10 μg of the substance), and in F. oxysporum inhibition zone was 25 mm. Similar inhibition was also observed in F. moniliformae and Rhizoctonia solani (24 mm and 22 mm) respectively (Tables 2, 3 & 4). The above antibiotic activity against dominant pathogens is the clear indication of the potential application of the compound for both agricultural and medical purposes.
# as §1, with “2-Methylheptylisonicotinate” for “2-Methylheptylisonicotinate of formula”, “(Table” for “(Tables”, “4).” for “4). The above antibiotic activity against dominant pathogens is the clear indication of the potential application of the compound for both agricultural and medical purposes.”
# E. coli [2] = assay: agar cup assay, zone of inhibition; conditions: purified compound, 10 μg of the substance
# Procedure: as §1
# as §1, with “2-Methylheptylisonicotinate” for “2-Methylheptylisonicotinate of formula”, “(Table” for “(Tables”, “4).” for “4). The above antibiotic activity against dominant pathogens is the clear indication of the potential application of the compound for both agricultural and medical purposes.”
# F. oxysporum = assay: agar cup assay, zone of inhibition; conditions: purified compound, 10 μg of the substance
# Procedure: as §1
# as §1, with “2-Methylheptylisonicotinate” for “2-Methylheptylisonicotinate of formula”, “(Table” for “(Tables”, “4).” for “4). The above antibiotic activity against dominant pathogens is the clear indication of the potential application of the compound for both agricultural and medical purposes.”
# F. semitechtum = assay: agar cup assay, zone of inhibition; conditions: purified compound, 10 μg of the substance
# Procedure: as §1
# as §1, with “2-Methylheptylisonicotinate” for “2-Methylheptylisonicotinate of formula”, “(Table” for “(Tables”, “4).” for “4). The above antibiotic activity against dominant pathogens is the clear indication of the potential application of the compound for both agricultural and medical purposes.”
# F. solani [3] = assay: agar cup assay, zone of inhibition; conditions: purified compound, 10 μg of the substance
# Procedure: as §1
# as §1, with “2-Methylheptylisonicotinate” for “2-Methylheptylisonicotinate of formula”, “(Table” for “(Tables”, “4).” for “4). The above antibiotic activity against dominant pathogens is the clear indication of the potential application of the compound for both agricultural and medical purposes.”
# Fusarium moniliforme = assay: agar cup assay, zone of inhibition; conditions: purified compound, 10 μg of the substance
# Procedure: as §1
# as §1, with “2-Methylheptylisonicotinate” for “2-Methylheptylisonicotinate of formula”, “(Table” for “(Tables”, “4).” for “4). The above antibiotic activity against dominant pathogens is the clear indication of the potential application of the compound for both agricultural and medical purposes.”
# Klebsiella sp. [4] = assay: agar cup assay, zone of inhibition; conditions: purified compound, 10 μg of the substance
# Procedure: as §1
# as §1, with “2-Methylheptylisonicotinate” for “2-Methylheptylisonicotinate of formula”, “(Table” for “(Tables”, “4).” for “4). The above antibiotic activity against dominant pathogens is the clear indication of the potential application of the compound for both agricultural and medical purposes.”
# Proteus mirabilis [5] = assay: agar cup assay, zone of inhibition; conditions: purified compound, 10 μg of the substance
# Procedure: as §1
# as §1, with “2-Methylheptylisonicotinate” for “2-Methylheptylisonicotinate of formula”, “(Table” for “(Tables”, “4).” for “4). The above antibiotic activity against dominant pathogens is the clear indication of the potential application of the compound for both agricultural and medical purposes.”
# Rhizoctonia solani [6] = assay: agar cup assay, zone of inhibition; conditions: purified compound, 10 μg of the substance
# Procedure: as §1
# as §1, with “2-Methylheptylisonicotinate” for “2-Methylheptylisonicotinate of formula”, “(Table” for “(Tables”, “4).” for “4). The above antibiotic activity against dominant pathogens is the clear indication of the potential application of the compound for both agricultural and medical purposes.”
# Shigella sp. [7] = assay: agar cup assay, zone of inhibition; conditions: purified compound, 10 μg of the substance
# Procedure: as §1
# as §1, with “2-Methylheptylisonicotinate” for “2-Methylheptylisonicotinate of formula”, “(Table” for “(Tables”, “4).” for “4). The above antibiotic activity against dominant pathogens is the clear indication of the potential application of the compound for both agricultural and medical purposes.”
# Rhizoctonia solani [8] = assay: antifungal activity, MIC
# F. moniliformae = assay: antifungal activity, MIC
# F. solani [9] = assay: antifungal activity, MIC; conditions: Fusarium solani
# F. semitectum = assay: antifungal activity, MIC; conditions: Fusarium incarnatum
# F. oxysponim = assay: antifungal activity, MIC
# Bacillus subtilis [10] = assay: antibacterial activity, MIC
# E. coli [11] = assay: antibacterial activity, MIC; conditions: Escherichia coli
# Arthrobacter sp. = assay: antibacterial activity, MIC
# Proteus mirabilis [12] = assay: antibacterial activity, MIC
# Shigella sp. [13] = assay: antibacterial activity, MIC
# Klebsiella sp. [14] = assay: antibacterial activity, MIC
# [15] = Fusarium oxysporum, read-out: MIC
Compound,MIC (Rhizoctonia solani [8]),MIC (F. moniliformae; read-out: MIC),MIC (F. solani [9]),MIC (F. semitectum),MIC (F. oxysponim; [15]),MIC (Bacillus subtilis [10]),MIC (E. coli [11]),MIC (Arthrobacter sp.),MIC (Proteus mirabilis [12]),MIC (Shigella sp. [13]),MIC (Klebsiella sp. [14]),also measured
"CCCCCC(C)COC(=O)c1ccncc1 (stereo not shown) [Compound 1, 2-methylheptylisonicotinate]",20 µg/mL,45 µg/mL,20 µg/mL,20 µg/mL,43 µg/mL,50 µg/mL,70 µg/mL,40 µg/mL,40 µg/mL,60 µg/mL,50 µg/mL,"Inhibition zone (Bacillus subtilis [1]): 20 mm; Inhibition zone (E. coli [2]): 30 mm; Inhibition zone (F. oxysporum): 25 mm; Inhibition zone (F. semitechtum): 26 mm; Inhibition zone (F. solani [3]): 26 mm; Inhibition zone (Fusarium moniliforme): 24 mm; Inhibition zone (Klebsiella sp. [4]): 18 mm; Inhibition zone (Proteus mirabilis [5]): 28 mm; Inhibition zone (Rhizoctonia solani [6]): 22 mm; Inhibition zone (Shigella sp. [7]): 20 mm; MIC (F. moniliformae; listed as I): 42 µg/mL; MIC (F. oxysponim; F. oxysponim (F. oxysporum), listed as I): 45 µg/mL"
"NNC(=O)c1ccncc1 [Isoniazid, isonicotinic acid hydrazide, reference compound]",250 µg/mL,200 µg/mL,300 µg/mL,300 µg/mL,350 µg/mL,150 µg/mL,250 µg/mL,150 µg/mL,200 µg/mL,300 µg/mL,250 µg/mL,
